Assay results published in patent US10028992B2, “Methods of treating muscular dystrophy” (BOARD OF REGENTS OF THE NEVADA SYSTEM OF HIGHER EDUCATION …, priority 2012, dated 2018).

Tested on: α7 integrin promoter
Assay: muscle cell-based assay: α7βgal+/− myoblasts/myotubes, LacZ reporter, β-galactosidase cleavage of FDG
Design: species or system mouse; Results in α7+/− β-galactosidase assay: scale not given here
Conditions: Myoblasts
Procedure, shortened: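 Fluorescein generated from FDG by β-galactosidase reports α7 integrin promoter activity in differentiated myoblasts from α7+/− LacZ knock-in pups. Screening hits then went to dose-response, western blotting and a myostatin counterscreen.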

Row | Compound | Results in α7+/− β-galactosidase assay (0.5 uM) | Results in α7+/− β-galactosidase assay (1 uM) | Results in α7+/− β-galactosidase assay (5 uM) | Results in α7+/− β-galactosidase assay (10 uM) | Results in α7+/− β-galactosidase assay (20 uM) | Results in α7+/− β-galactosidase assay (40 uM)
1 | Cc1nnc(-c2ccc(N3CCOCC3)c([N+](=O)[O-])c2)o1 [drawing 546] | −0.06474 | −0.06237 | −0.05162 | −0.06761 | −0.1275 | −0.08865
2 | Cc1cc(C)cc(OCC(=O)N/N=C/c2ccccn2)c1 [drawing 547] | 0.02525 | 0.04969 | 0.0722 | −0.00591 | 0.8477 | −0.1757
3 | O=C1Nc2ccccc2/C1=C/c1c[nH]c(-c2ccccc2)n1 [drawing 548] | 0.05646 | 0.09843 | 0.2266 | 0.1719 | 0.06424 | 0.08092
4 | O=C(c1ccccc1)N1CCN(S(=O)(=O)c2cccs2)CC1 [drawing 549] | 0.05147 | 0.1507 | 0.1856 | −0.01279 | 0.05474 | 0.09083
5 | COc1ccccc1C(=O)Nc1ccnn1C1CCN(C(=O)c2ccoc2)CC1 [drawing 551] | −0.09644 | −0.04841 | 0.05814 | 0.02292 | 0.01412 | −0.05323
6 | CCOC(=O)c1nnn(-c2nonc2OC)c1-c1ccccc1 [drawing 552] | 0.01584 | 0.107 | 0.07484 | −0.08302 | 0.003125 | −0.1081
7 | CC(C)(C)Nc1nc(-c2ccc3c(c2)CCN3C(=O)C2CC2)cs1 [drawing 553] | 0.1228 | 0.2827 | 0.1111 | −0.01717 | −0.1366 | −0.2135
8 | CCN(C(=O)c1ccc(S(=O)(=O)N(C)C)cc1)C(C)C(=O)Nc1ccc(C)cc1 (stereo not drawn) [drawing 556] | −0.05004 | −0.1349 | −0.02565 | 0.2444 | −0.07832 | −0.2867
9 | COc1cc(NC(=O)OCc2ccccc2)c2ncccc2c1 [drawing 557] | 0.0156 | −0.08284 | 0.01997 | 0.2347 | −0.06526 | −0.1686
10 | Cc1ccc2c(c1)/C(=C/c1ccccc1C)C(=O)N2 [drawing 558] | 0.05088 | −0.09662 | −0.07445 | 0.08015 | −0.3519 | −0.675
11 | O=C(NCCc1ccccc1)C1CCC(=O)N1C1CCCC1 (stereo not drawn) [drawing 559] | −0.1018 | −0.1461 | 0.003015 | 0.245 | 0.1433 | 0.02863
12 | CCCN(C(=O)c1ccc(S(=O)(=O)N2CCCC2)cc1)C1CCS(=O)(=O)C1 (stereo not drawn) [drawing 560] | −0.1431 | −0.1722 | −0.06143 | 0.1978 | 0.07259 | −0.0646
13 | C=CCOc1ccc(C(=O)/C=C2\C(=O)Nc3ccccc32)cc1 [drawing 561] | −0.1092 | −0.1536 | −0.257 | −0.2991 | −0.2121 | −0.7606
14 | CCN(CC(=O)NCc1cccs1)C(=O)COc1ccc(C(N)=O)cc1 [drawing 562] | −0.04485 | −0.05578 | −0.03005 | 0.2509 | −0.05432 | −0.02246
15 | CC(C)Oc1cccc(C(=O)Nc2ccc(CN3CCOCC3)cc2)c1 [drawing 563] | −0.0458 | −0.04183 | 0.01603 | 0.2092 | 0.7886 | −0.0962
16 | Cc1ccc(/C=C2\C(=O)Nc3ccccc32)o1 [drawing 564] | 0.06962 | 0.01537 | −0.08809 | −0.1824 | −0.2196 | −0.6995
17 | O=c1[nH]c(CN2CCCCC2)cc2c1C1(CCCCC1)Cc1ccccc1-2 [drawing 565] | 0.03731 | −0.01272 | −0.01947 | −0.1479 | 0.1068 | −0.1465
18 | COc1ccccc1NS(=O)(=O)c1cc(NC(=O)c2ccc(Cl)nc2)ccc1N1CCCC1 [drawing 566] | 0.1257 | 0.1127 | 0.06786 | 0.0849 | −0.1817 | −0.2311
19 | N#C/C(=C1/C(=O)Nc2ccc(Br)cc21)c1ccccn1 [drawing 567] | 0.2021 | 0.000395 | −0.2923 | −0.4689 | −0.5478 | −0.6637
20 | N#CC1=C2SCN(c3ccccc3)CN2C(=O)CC1c1cccs1 (stereo not drawn) [drawing 568] | −0.02125 | −0.07703 | −0.07651 | −0.05714 | 0.1121 | −0.08344
21 | COc1ccc(C(=O)/C=C2\C(=O)Nc3ccccc32)cc1 [drawing 569] | 0.002308 | −0.1094 | −0.5146 | −0.6859 | −0.703 | −0.8556
22 | O=C(O)c1csc(-c2cccs2)n1 [drawing 570] | 0.0287 | −0.01442 | 0.8119 | −0.08869 | 0.1022 | −0.04959
23 | COc1cccc(C(=O)COc2ccc3ccc(=O)oc3c2)c1 [drawing 571] | 0.09281 | 0.06053 | −0.01266 | 0.02813 | 0.004164 | −0.04457
24 | CCCS(=O)(=O)c1nc(S(=O)(=O)c2ccc(C)cc2)c(N2CCCC2)s1 [drawing 572] | 0.06463 | 0.01847 | −0.2102 | −0.5196 | −0.8221 | −0.878
25 | OC(c1nc2cc(F)ccc2[nH]1)C(O)c1nc2cc(F)ccc2[nH]1 (stereo not drawn) [drawing 573] | 0.08093 | 0.2145 | −0.08597 | −0.1055 | 0.001076 | −0.1048
26 | COc1ccc(OC)c(NC(=O)CN2CCC(NC(=O)c3ccccc3C)CC2)c1 [drawing 574] | 0.0132 | 0.06975 | 0.04855 | −0.0931 | 0.06823 | 0.04785
27 | O=C(CCc1ccccc1)c1nnc(-c2ccccc2)o1 [drawing 575] | 0.0917 | 0.1045 | 0.03485 | −0.04687 | −0.02713 | −0.06265
28 | COc1ccc(/N=N/c2ccc(N)nc2N)cc1 [drawing 576] | 0.2183 | 0.2858 | 0.06976 | 0.01151 | 0.0406 | −0.04372
